In patent US8877748B2, “Heterocyclic fused anthraquinone derivatives, manufacturing method and pharmaceutical composition using thereof” (National Defense Medical Center, priority 2012, dated 2014):

How the values were obtained:
[1] = test system: PC-3 prostate cancer cell line; experiment: SRB assay cell viability, PC-3 prostate cancer cell line; type: cell-based, human; conditions: Homo sapiens, PC-3 prostate cancer cell line, Table II prints no unit, μM printed, read-out: SRB assay: 50% inhibition of cancer cell proliferation of sample concentration (IC50) of PC-3 prostate cancer cell line
[2] = test system: HL-60, TB; experiment: NCI one-dose screening, leukemia HL-60, TB; type: cell-based, human; conditions: 10 μM
[3] = test system: MOLT-4; experiment: NCI one-dose screening, leukemia MOLT-4; type: cell-based, human; conditions: 10 μM
[4] = test system: SR; experiment: NCI one-dose screening, leukemia SR; type: cell-based, human; conditions: 10 μM
[5] = test system: PRMI-8226 cell line; experiment: NCI one-dose screening, leukemia PRMI-8226; type: cell-based, human; conditions: 10 μM
[6] = test system: K562cell line; experiment: NCI one-dose screening, leukemia K562; type: cell-based, human; conditions: 10 μM
[7] = test system: HOP-62; experiment: NCI one-dose screening, non-small cell lung cancer HOP-62; type: cell-based, human; conditions: 10 μM
[8] = test system: NCI-H226; experiment: NCI one-dose screening, non-small cell lung cancer NCI-H226; type: cell-based, human; conditions: 10 μM
[9] = test system: NCI-H23; experiment: NCI one-dose screening, non-small cell lung cancer NCI-H23; type: cell-based, human; conditions: 10 μM
[10] = test system: NCI-H322M; experiment: NCI one-dose screening, non-small cell lung cancer NCI-H322M; type: cell-based, human; conditions: 10 μM; Non-small cell lung cancer
[11] = test system: NCI-H460; experiment: NCI one-dose screening, non-small cell lung cancer NCI-H460; type: cell-based, human; conditions: 10 μM
[12] = test system: NCI-H522; experiment: NCI one-dose screening, non-small cell lung cancer NCI-H522; type: cell-based, human; conditions: 10 μM
[13] = test system: A549/ATCC; experiment: NCI one-dose screening, non-small cell lung cancer A549/ATCC; type: cell-based, human; conditions: 10 μM
[14] = test system: COLO 205; experiment: NCI one-dose screening, colon cancer COLO 205; type: cell-based, human; conditions: 10 μM
[15] = test system: HCC-2998; experiment: NCI one-dose screening, colon cancer HCC-2998; type: cell-based, human; conditions: 10 μM
[16] = test system: HCT-116; experiment: NCI one-dose screening, colon cancer HCT-116; type: cell-based, human; conditions: 10 μM
[17] = test system: HCT-15; experiment: NCI one-dose screening, colon cancer HCT-15; type: cell-based, human; conditions: 10 μM
[18] = test system: KM12; experiment: NCI one-dose screening, colon cancer KM12; type: cell-based, human; conditions: 10 μM
[19] = test system: HT29; experiment: NCI one-dose screening, colon cancer HT29; type: cell-based, human; conditions: 10 μM
[20] = test system: SF-268; experiment: NCI one-dose screening, CNS cancer SF-268; type: cell-based, human; conditions: 10 μM
[21] = test system: SF-539; experiment: NCI one-dose screening, CNS cancer SF-539; type: cell-based, human; conditions: 10 μM
[22] = test system: SNB-19; experiment: NCI one-dose screening, CNS cancer SNB-19; type: cell-based, human; conditions: 10 μM
[23] = test system: SNB-75; experiment: NCI one-dose screening, CNS cancer SNB-75; type: cell-based, human; conditions: 10 μM
[24] = test system: U251; experiment: NCI one-dose screening, CNS cancer U251; type: cell-based, human; conditions: 10 μM
[25] = test system: LOX IMVI; experiment: NCI one-dose screening, melanoma LOX IMVI; type: cell-based, human; conditions: 10 μM
[26] = test system: MALME-3M; experiment: NCI one-dose screening, melanoma MALME-3M; type: cell-based, human; conditions: 10 μM
[27] = test system: M14; experiment: NCI one-dose screening, melanoma M14; type: cell-based, human; conditions: 10 μM
[28] = test system: UACC-62; experiment: NCI one-dose screening, melanoma UACC-62; type: cell-based, human; conditions: 10 μM
[29] = test system: UACC-257; experiment: NCI one-dose screening, melanoma UACC-257; type: cell-based, human; conditions: 10 μM
[30] = test system: SK-MEL-2; experiment: NCI one-dose screening, melanoma SK-MEL-2; type: cell-based, human; conditions: 10 μM
[31] = test system: SK-MEL-28; experiment: NCI one-dose screening, melanoma SK-MEL-28; type: cell-based, human; conditions: 10 μM
[32] = test system: SK-MEL-5; experiment: NCI one-dose screening, melanoma SK-MEL-5; type: cell-based, human; conditions: 10 μM
[33] = test system: IGROV1; experiment: NCI one-dose screening, ovarian cancer IGROV1; type: cell-based, human; conditions: 10 μM
[34] = test system: OVCAR-3; experiment: NCI one-dose screening, ovarian cancer OVCAR-3; type: cell-based, human; conditions: 10 μM
[35] = test system: OVCAR-4; experiment: NCI one-dose screening, ovarian cancer OVCAR-4; type: cell-based, human; conditions: 10 μM
[36] = test system: OVCAR-5; experiment: NCI one-dose screening, ovarian cancer OVCAR-5; type: cell-based, human; conditions: 10 μM
[37] = test system: OVCAR-8; experiment: NCI one-dose screening, ovarian cancer OVCAR-8; type: cell-based, human; conditions: 10 μM
[38] = test system: 786-O; experiment: NCI one-dose screening, renal cancer 786-O; type: cell-based, human; conditions: 10 μM
[39] = test system: ACHN; experiment: NCI one-dose screening, renal cancer ACHN; type: cell-based, human; conditions: 10 μM
[40] = test system: SN12C; experiment: NCI one-dose screening, renal cancer SN12C; type: cell-based, human; conditions: 10 μM
[41] = test system: TK-10; experiment: NCI one-dose screening, renal cancer TK-10; type: cell-based, human; conditions: 10 μM
[42] = test system: RXF, 393; experiment: NCI one-dose screening, renal cancer RXF, 393; type: cell-based, human; conditions: 10 μM
[43] = test system: NCl/ADR-RES; experiment: NCI one-dose screening, breast cancer NCl/ADR-RES; type: cell-based, human; conditions: 10 μM; listed under Ovarian cancer
[44] = test system: CCRF-CEM; experiment: NCI screening platform one-dose single concentration screening, leukemia CCRF-CEM; type: cell-based, human; conditions: 10 μM
[45] = test system: EKVX; experiment: NCI one-dose screening, non-small cell lung cancer EKVX; type: cell-based, human; conditions: 10 μM
[46] = test system: SF-295; experiment: NCI one-dose screening, CNS cancer SF-295; type: cell-based, human; conditions: 10 μM
[47] = test system: CAKI-1; experiment: NCI one-dose screening, renal cancer CAKI-1; type: cell-based, human; conditions: 10 μM

O=C1c2ccccc2C(=O)c2c1cc(SCc1ccc(Cl)cc1)c1nsnc21 [C56, 4-(4-chloro-benzylthio)anthra[2,1-c] [1,2,5]thiadiazol-6,11-dione]
IC50 [1]: > 15 µM
Growth Percent HL-60(TB) [2]: 57.42%
Growth Percent MOLT-4 [3]: 22.72%
Growth Percent SR [4]: 63.73%
Growth Percent RPMI-8226 [5]: 86.78%
Growth Percent K562 [6]: 67.53%
Growth Percent HOP-62 [7]: 89.15%
Growth Percent NCI-H226 [8]: 82.14%
Growth Percent NCI-H23 [9]: 82.13%
Growth Percent NCI-H322M [10]: 94.10%
Growth Percent NCI-H460 [11]: 104.55%
Growth Percent NCI-H522 [12]: 82.61%
Growth Percent A549/ATCC [13]: 100.62%
Growth Percent COLO 205 [14]: 99.94%
Growth Percent HCC-2998 [15]: 102.54%
Growth Percent HCT-116 [16]: 114.73%
Growth Percent HCT-15 [17]: 97.91%
Growth Percent KM12 [18]: 105.46%
Growth Percent HT29 [19]: 96.41%
Growth Percent SF-268 [20]: 107.19%
Growth Percent SF-539 [21]: 97.95%
Growth Percent SNB-19 [22]: 104.30%
Growth Percent SNB-75 [23]: 63.35%
Growth Percent U251 [24]: 94.44%
Growth Percent LOX IMVI [25]: 86.69%
Growth Percent MALME-3M [26]: 86.38%
Growth Percent M14 [27]: 126.40%
Growth Percent UACC-62 [28]: 101.52%
Growth Percent UACC-257 [29]: 78.70%
Growth Percent SK-MEL-2 [30]: 109.63%
Growth Percent SK-MEL-28 [31]: 95.35%
Growth Percent SK-MEL-5 [32]: 89.57%
Growth Percent IGROV1 [33]: 84.25%
Growth Percent OVCAR-3 [34]: 113.46%
Growth Percent OVCAR-4 [35]: 84.19%
Growth Percent OVCAR-5 [36]: 104.48%
Growth Percent OVCAR-8 [37]: 94.19%
Growth Percent 786-0 [38]: 117.98%
Growth Percent ACHN [39]: 94.35%
Growth Percent SN12C [40]: 93.61%
Growth Percent TK-10 [41]: 121.91%
Growth Percent RXF 393 [42]: 104.79%
Growth Percent NCI/ADR-RES [43]: 95.73%
melting point: 261 to 262 °C

Cc1ccccc1Nc1cc2c(c3nsnc13)C(=O)c1ccccc1C2=O [C61, 4-(o-tolylamino)anthra[2,1-c][1,2,5] thiadiazol-6,11-dione]
IC50 [1]: 0.21 µM
Growth Percent CCRF-CEM [44]: 17.83%
Growth Percent HL-60(TB) [2]: 1.11%
Growth Percent MOLT-4 [3]: −11.92%
Growth Percent SR [4]: −15.27%
Growth Percent RPMI-8226 [5]: 16.20%
Growth Percent K562 [6]: 16.97%
Growth Percent EKVX [45]: 62.56%
Growth Percent HOP-62 [7]: 40.78%
Growth Percent NCI-H226 [8]: 47.00%
Growth Percent NCI-H23 [9]: 37.57%
Growth Percent NCI-H322M [10]: 64.54%
Growth Percent NCI-H460 [11]: 11.85%
Growth Percent NCI-H522 [12]: 12.41%
Growth Percent A549/ATCC [13]: 27.13%
Growth Percent COLO 205 [14]: 83.39%
Growth Percent HCC-2998 [15]: 57.61%
Growth Percent HCT-116 [16]: 24.23%
Growth Percent HCT-15 [17]: 28.74%
Growth Percent KM12 [18]: 40.14%
Growth Percent HT29 [19]: 52.64%
Growth Percent SF-268 [20]: 39.57%
Growth Percent SF-295 [46]: 34.71%
Growth Percent SF-539 [21]: 47.90%
Growth Percent SNB-19 [22]: 61.89%
Growth Percent SNB-75 [23]: 43.18%
Growth Percent U251 [24]: 19.18%
Growth Percent LOX IMVI [25]: 8.17%
Growth Percent MALME-3M [26]: 64.72%
Growth Percent M14 [27]: 61.89%
Growth Percent UACC-62 [28]: 57.68%
Growth Percent UACC-257 [29]: 33.79%
Growth Percent SK-MEL-2 [30]: 32.64%
Growth Percent SK-MEL-28 [31]: 53.13%
Growth Percent SK-MEL-5 [32]: 8.03%
Growth Percent IGROV1 [33]: 25.29%
Growth Percent OVCAR-3 [34]: 22.37%
Growth Percent OVCAR-4 [35]: −5.69%
Growth Percent OVCAR-5 [36]: 79.06%
Growth Percent OVCAR-8 [37]: 22.87%
Growth Percent 786-0 [38]: 63.62%
Growth Percent CAKI-1 [47]: 27.55%
Growth Percent ACHN [39]: 38.07%
Growth Percent SN12C [40]: 46.94%
Growth Percent TK-10 [41]: 63.75%
Growth Percent RXF 393 [42]: 45.35%
Growth Percent NCI/ADR-RES [43]: 28.36%
melting point: 177 to 178 °C
